# Tested on: primary brain microvascular endothelial cells (pBMECs)
# Experiment: γ-H2AX counts after local 3×3 mm X-ray irradiation (irradiated and bystander zones), pBMECs
# Format: cell-based, mouse
# Conditions: 1 Gy, 3 h post-irradiation
# Protocol: Cortices, from 10-12 week old mice, were isolated by removing cerebellum, striatum, optic nerves, brain white matter, outer vessels and meninges. After homogenization with a Dounce homogenizer in WBB (Washing Buffer B: HMS, 10 mM Hepes, 0.35 g/L NaHCO3, 0.1% BSA), the homogenate was mixed with 30% dextran in WBB and centrifuged at 3000×g for 25 min at 4° C. The pellet containing the vascular component was then resuspended in WBB and filtered through a 60 μm NY60 Nylon Net Filter (Millipore, Darmstadt, Germany). Following centrifugation at 1000×g for 7 min at room temperature, the pellet was digested in collagenase/dispase supplement with DNase I (Roche Diagnostics, Vilvoorde, Belgium) and TLCK (Tosyl, Lysin chloromethyl ketone, sigma-aldrich) for 33 min at 37° C. in a shaking water bath. The digested capillary suspension was then seeded after multiple washing steps on wells coated with matrigel or glass coated with Corning Cell-Tak (VWR, Leuven, Belgium). For the isolation of intact capillaries the protocol was aborted just before the digestion step.
# A defined area of the cell culture dishes were exposed to X-rays (1Gy or 20 Gy) by using a small animal radiation research platform (SARRP, Xstrahl, 220 kV, 13 mA), making use of a 3×3 mm collimator. Whole dish irradiation was done using a 10×10 cm broad-beam collimator, while localized Irradiation was performed with a 3×3 mm collimator. A Gafchromic RTQA2 film, with a sensitivity of 0.02 Gy, was placed underneath the cell dishes in order to delineate the irradiated zone.
# Cells were fixed for 25 min with 4% formaldehyde (VWR) and blocked for 30 min with blocking buffer (5% normal goat serum, 1% bovine serum albumin (BSA), 0.2% Triton X-100 in PBS D+). Overnight incubation with primary antibody (1/500 anti-γ-H2AX in dilution buffer, 1/10 blocking buffer in PBS D+) was followed by a 1 h incubation with 1/400 XX-biotin-goat-anti-mouse antibody in dilution buffer, followed by a 1 h incubation with 1/400 streptavidin-alexa488 in PBS D+. Nuclei were stained with 1 μg/mL DAPI in PBS D+ for 10 min and cells were kept in PBS D+ supplemented with NaN3 at 4° C. All steps except the overnight incubation which was carried out at 4° C., were carried out at room temperature and cell cultures were rinsed thoroughly with PBS D+ between all incubation steps. Imaging was performed with an automated BD Pathway 435 imaging system (10× objective, 10×10 montage resulting in an overall image size of 8.5×6.5 mm). We then quantified the number of γ-H2AX-foci positive nuclei in the directly irradiated and bystander areas and expressed the count as a percentage relative to the number of nuclei and subtracted the percentage of background γ-H2AX signal in non-irradiated paired control cultures for each experiment. For counting γ-H2AX foci, images were thresholded to remove background pixel noise below the foci level. Where applicable, results were normalized against vehicle (bar charts with a 100% vehicle bar without statistical variability or a horizontal line).
substance,measurement,value
"TAT-Gap19: connexin mimetic peptide, amino-acids 128-136 of the CL of Cx43 (SEQ ID NO: 2), Gap19 linked to TAT sequence; Cx43 hemichannel inhibitor (YGRKKRRQRRRKQIEIKKFK)",γ-H2AX counts in the bystander zone (normalized to vehicle),only had effect in the bystander zone
same,γ-H2AX counts in the irradiated area (normalized to vehicle),only had effect in the bystander zone

# Reference: patent US20200384072A1, “THERAPY OF IONIZING RADIATION-INDUCED DISORDERS” (SCK-CEN, priority 2019, published 2020)
